What was measured:
U937 cells = experiment: Phagocytosis of 2 μm fluorescent beads by PMA-differentiated U937 macrophages; format: cell-based, human; details: U937 monocytes exposed to 10^−8M PMA for 48 hours; undifferentiated monocytes could not phagocytose
Procedure: (§1) To obtain differentiated macrophages, U937 monocytes were exposed to 10^−8M PMA (originating from a 10^−3M stock in DMSO) (Sigma-Aldrich) for 48 hours. Exposure of monocytes to phorbol esters induces morphological, physiological and molecular characteristics of terminally differentiated macrophages (Rovera et al., 1979, Prieto et al., 1994). For CLSM staining purposes, monocytes were differentiated with PMA and A549 cells were grown in 6-well plates containing sterile coverslips. For CLSM staining of undifferentiated U937, cytodex-3 beads (5 mg/ml) were added to the culture medium, allowing adhesion of U937 to the beads and facilitation of the staining procedure.
The phagocytosis activity of monocytes and macrophages cultured alone or co-cultured with A549 cells in three-dimensional was assessed based on the uptake of bacterial-sized 2 μm fluorescent […] beads (Fluoresbrite plain YG, Polysciences). The phagocytosis assay was performed as previously described (Gao et al., 2010).

ICAM-1 on U937 cells = experiment: ICAM-1 labeling of PMA-differentiated U937 macrophages, confocal laser scanning microscopy; format: cell-based, human; details: U937 monocytes exposed to 10^−8M PMA for 48 hours; monocytes alone stained weakly positive
Procedure: as §1
The antibodies used for CLSM imaging in the present study were from mouse origin and targeted the human CD45 (Abcam), ICAM-1 (Abcam), MUC5AC (Invitrogen), ZO-1 (Invitrogen) and β-catenin (Chemicon). All primary antibodies were used in a dilution of 1:50. ICAM-1 was the only directly labeled antibody used for CLSM staining and was conjugated with phycoerythrin (PE). […]
Optical sections of the three-dimensional aggregates and monolayers were obtained using a Zeiss LSM 510 Duo laser scanning microscope equipped with detectors and filter sets for monitoring emissions of the selected fluorophores. Images were acquired using a Plan-Neofluar 40×/1.3 oil DIC objective and were analyzed with the Zeiss LSM software package. […]

## CCCCCCCCCCCCCC(=O)O[C@@H]1[C@@H](C)[C@@]2(O)[C@@H](C=C(CO)C[C@]3(O)C(=O)C(C)=C[C@@H]23)[C@@H]2C(C)(C)[C@]12OC(C)=O [PMA, phorbol 12-myristate 13-acetate]
U937 cells
  phagocytosis of 2 μm fluorescent beads: engulfment of one-to-multiple beads
ICAM-1 on U937 cells
  ICAM-1 labeling of differentiated macrophages: strong ICAM-1 labeling
